Measurements: patent publication US12440466B2, “Fatty acid derivatives for treating non-alcoholic steatohepatitis” (BASF AS, priority 2017, dated 2025)
Marks after values point to notes of the source that are not given here.

Key:
STAM (model) mice [1] = assay: Fibrosis area by Sirius Red staining, STAM model; assay type: in vivo, mouse; conditions: Sirius Red positive area, 6 weeks treatment, Compound A 37 mg/kg/day oral gavage
Text: (§1) In Biological Example 8, pathogen-free 15-day-pregnant C57BL/6 mice were obtained from Charles River Laboratories in Japan Inc. (Kanagawa, Japan). NASH was established in male mice by a single subcutaneous injection of streptozotocin (STZ) (Sigma, USA) after birth and feeding with a high fat diet (HFD; CLEA) Japan, Japan) ad libitum after 4 weeks of age (day 28±2). Mice were randomised into 3 groups of 8 mice at 6 weeks of age the day before the start of treatment: vehicle (saline), Compound A and telmisartan (positive control). Treatment with Compound A at a dose of 37 mg/kg bw per day via oral gavage in conjunction with a high-fat diet was given for 6 weeks before sacrifice. NAFLD activity score (NAS) was calculated according to standardised criteria and fibrosis area was assessed via Sirius Red staining.

STAM (model) mice [2] = assay: NAFLD activity score (NAS) in streptozotocin/high-fat diet NASH model (STAM model); assay type: in vivo, mouse; conditions: 6 weeks treatment, Compound A 37 mg/kg/day oral gavage, telmisartan positive control
Text: as §1

[3] = Body weight, liver weight and food intake in ob/ob AMLN mice; assay type: in vivo, mouse
Description: (§2) Obese diet-induced B6.V-Lepob/Jrj mice (ob/ob) are consistently fibrosis (liver) prone when cholesterol (2%), 40% fat (containing 18% trans-fatty acids) and 20% fructose are added to a high-caloric diet (i.e., AMLN high-fat diet). ob/ob mice on AMLN diet (termed ‘ob/ob AMLN mice’) develop steatohepatitis and fibrosis within a shorter timeframe ([…]) compared with wild-type C57BL/6 mice (AMLN mice) fed the same diet. ob/ob AMLN mice provide an obese diet-induced model of NASH that also allows the study of effects on glycemic control. Development of NASH in the ob/ob AMLN model is confirmed by biopsy.
In Biological Examples 10-12, 15, and 19, studies were performed in male ob/ob mice (5 weeks old) fed an AMLN high-fat diet for 15 weeks, then randomized into 3 groups (n=10 per group) to receive either 112 mg/kg bw per day of Compound A via diet, 30 mg/kg bw per day pioglitazone via diet or no treatment (vehicle) for a further 4 weeks. An oral glucose tolerance test (OGTT) was performed at week 3. Hepatic fibrosis was assessed via measurements of hepatic fibrogenic/fibrolytic gene expression by RNA sequencing at 4 weeks.
(§3) In Biological Examples 10, 13-14, and 16-18, studies were performed in male ob/ob mice (5 weeks old) fed an AMLN high-fat diet for 18 weeks, then randomized into 6 groups (n=10 per group) to receive either Compound A (at 3 different daily doses, 45 mg/kg, 90 mg/kg or 135 mg/kg) via diet, 30 mg/kg bw per day obeticholic acid (OCA) via diet, or no treatment (vehicle) for a further 8 weeks. Assessment of NASH related parameters and fibrosis was made at study end by quantitative immune histochemistry (IHC) measurements.

[4] = system: LX-2 human hepatic stellate cells; assay: LX-2 cell viability by MTS assay; assay type: cell-based; conditions: LX-2 cells; 24 hours; Compound A 10-75 μM, OA 75 μM
Description: (§4) Stellate cells are resident liver cells and the major cell type involved in the initiation and progression of liver fibrosis. In Biological Example 20, in vitro studies were performed on cultured human stellate cells (LX-2 cells) to assess direct effects of Compound A on these cells. Cells were treated for 24 hours with Compound A (10 μM, 25 μM, 50 μM, or 75 μM) or oleic acid (OA; 75 μM) and bromodeoxyuridine (BrdU) incorporation was assessed to determine effects on proliferation. A MTS (3-(4,5-dimethylthiazol-2-yl)-5-(3-carboxymethoxyphenyl)-2-(4-sulfophenyl)-2H-tetrazolium) assay was used to determine cell viability.
(§5) Cell proliferation of LX-2 human hepatic stellate cells treated for 24 hours with 10-75 μM of Compound A or oleic acid (OA) (75 μM) was assessed by BrdU incorporation. The results are normalised mean values ±S.E.M. of 5 independent experiments for icosabutate and 2 independent experiments for OA. […] The reduction in proliferation by Compound A was 25-34% at 24 hours whereas OA had no effect. The comparisons were made by one-way ANOVA with Dunnett's correction for multiple comparisons.

[5] = system: LX-2 human hepatic stellate cells; assay: LX-2 stellate cell proliferation by BrdU incorporation; assay type: cell-based; conditions: LX-2 cells; 24 hours; OA 75 μM
Description: as §4, §5

CDAA/high-fat fed mice [6] = assay: Hepatic lipidomic analysis, CDAA/high-fat diet mouse model; assay type: in vivo; conditions: Compound A 112 mg/kg bw per day or equimolar EPA, orally
Description: (§6) In Biological Examples 1-7, studies were performed in male C56BL/6J mice (9 weeks old). Mice were fed either choline-sufficient (CS) or choline deficient high-fat diets (31% total calories; “CDAA/high-fat”). The NASH inducing diet was instigated 6 weeks prior to the commencement of treatment in order to design the study as a treatment/reversal set-up rather than prophylaxis.
In Biological Example 7, after 6 weeks of either the CS or CDAA/high-fat diet, mice were administered 112 mg/kg bw per day of Compound A, or an equimolar dose of eicosapentaenoic acid (EPA), delivered orally. Hepatic lipidomic analysis was performed in isolated liver samples from CS (n=9), Compound A (n=9) and EPA (n=8) groups.
To further understand the effects of Compound A on hepatic lipid metabolism, lipidomic analysis of CS- and CDAA/high-fat fed mice (“CD”) was performed in isolated liver tissue.

APOE*3Leiden.CETP mice [7] = conditions: WO2016173923A1, cited from earlier work
TNF-α mRNA = assay: Hepatic TNF-α mRNA expression by qPCR, CDAA/high-fat diet mouse model; assay type: in vivo; conditions: CDAA/high-fat fed mice
Text: (§7) Mice were fed either choline-sufficient (CS) or choline deficient high-fat diets (31% total calories; “CDAA/high-fat”). The NASH inducing diet was instigated 6 weeks prior to the commencement of treatment in order to design the study as a treatment/reversal set-up rather than prophylaxis.
(§8) After 6 weeks of either the CS- or CDAA diet, mice were orally administered Compound A or comparison Compound N, both at 2 doses, 0.15 mmol/kg bw/day (low-dose, LD) and 0.3 mmol/kg bw per day (high-dose, HD). The test substances were administered orally as admix to the high-fat diet. Hepatic fibrosis was assessed by both measurement of hydroxyproline (HYP) content and Sirius Red (SR) morphometry. Fibrosis, inflammation and metabolism related transcripts levels were measured by quantitative real-time polymerase chain reaction (qPCR).
(§9) Studies were performed in male C56BL/6J mice (9 weeks old). Mice were divided into 6 experimental groups (n=9 per group) containing either CS or CDAA/high-fat diets, as described above. The NASH inducing CDAA/high fat diet was instigated 6 weeks prior to the commencement of treatment in order to assess treatment/reversal rather than prophylaxis. […] Compound A was administered orally as admix to the high-fat diet whilst GLP-1 agonist was delivered via intraperitoneal injection (i.p.). Fibrosis, inflammation and metabolism related transcripts levels were measured by quantitative real-time polymerase chain reaction (qPCR) in isolated liver tissue.

APOE*3Leiden.CETP mice [8] = assay: Hepatocellular hypertrophy grading in APOE*3Leiden.CETP double transgenic mice; assay type: in vivo, mouse; conditions: APOE*3Leiden.CETP mice on high fat/cholesterol diet; 0.3 mmol/kg bw per day by gavage; 20 weeks
Text: The APOE*3Leiden.CETP double transgenic mouse expresses a variant of the human apolipoprotein E3 (APOE3), the APOE*3Leiden, in addition to the human apolipoprotein C1 (APOC1) and CETP. […] By increasing the cholesterol content of the diet in this model, all the characteristics of human NASH develop.
In one study (using 1% cholesterol w/w), after a 3 weeks run-in period low-responder mice (20% of total) were removed from the study and the remaining mice were sub-divided into 4 groups of 12 mice each (+5 in the control group), matched for plasma cholesterol, triglycerides, blood glucose, body weight and age (t=0) and treatment was started. The mice received a daily gavage between 07hr00 and 10hr00 with either Compound A at 0.3 mmol/kg bw per day, the comparison compound Compound N (0.3 mmol/kg bw per day), rosiglitazone (13 mg/kg bw per day) or control (corn oil). After 20 weeks of treatment mice were sacrificed by CO2 asphyxiation, the liver was collected and the level of hepatocellular hypertrophy was graded.

CDAA/high-fat fed mice [9] = assay: Hepatic hydroxyproline (HYP) content, CDAA/high-fat diet induced NASH mouse model; assay type: in vivo
Text: Mouse models that are deficient in methionine and/choline (MCD and CDAA respectively) are well established for studying the development and treatment of NASH in pre-clinical drug development. As precursors for the synthesis of phosphatidylcholine, a dietary deficiency of methionine/choline leads to an inability to synthesize hepatic lipoproteins for the export of triglyceride that results in severe hepatic steatosis, inflammation and fibrosis.
Although the widely used methionine-choline deficient (MCD) diet consistently reproduces severe NASH-like hepatic inflammation and fibrosis in mice, it is also associated with severe weight-loss (loss of both skeletal muscle and fat mass). This is associated with an increased risk of death which presents major problems for long-term fibrogenesis experiments.
as §6
as §8, with “In Biological Examples 1-5, mice were divided into 6 experimental groups (n=9 per group) and fed either CS or CDAA/high-fat diets. After” for “After”

Col1a1 mRNA = assay: Hepatic Col1a1 mRNA expression by qPCR, CDAA/high-fat diet mouse model; assay type: in vivo; conditions: CDAA/high-fat fed mice
Text: as §7, §8, §9

[10] = system: α-smooth muscle actin (SMA); assay: Hepatic α-SMA content by quantitative IHC in ob/ob AMLN mice; assay type: in vivo, mouse; conditions: 8 weeks, OCA 30 mg/kg
Description: as §2, §3

col1A1 = assay: Hepatic col1A1 content by quantitative IHC in ob/ob AMLN mice; assay type: in vivo, mouse; conditions: 8 weeks, OCA 30 mg/kg
Description: as §2, §3

ob/ob AMLN mice = assay: Plasma ALT and AST (hepatocellular damage) in ob/ob AMLN mice; assay type: in vivo, mouse; conditions: 8 weeks, OCA 30 mg/kg
Description: as §2, §3
To assess the effects of Compound A and pioglitazone on hepatocellular injury or damage in ob/ob AMLN mice, plasma alanine aminotransferase (ALT) and aspartate transaminase (AST) were measured after 8 weeks of administration.

[11] = 8 weeks, Compound A 45, 90 and 135 mg/kg, OCA 30 mg/kg bw per day

## CCCc1nc2c(C)cc(-c3nc4ccccc4n3C)cc2n1Cc1ccc(-c2ccccc2C(=O)O)cc1 [Telmisartan, reference compound]
STAM (model) mice [1]
  Fibrosis area (%): 0.44%
STAM (model) mice [2]
  Hepatocellular ballooning: 0.8
  Lobular inflammation: 0.45
  NAS score (mean ± SD): 1.8 ± 0.8
  Steatosis: 0.7

## CCc1ccc(CCOc2ccc(CC3SC(=O)NC3=O)cc2)nc1 (stereo not drawn) [pioglitazone, reference compound]
[3]; 4 weeks, pioglitazone 30 mg/kg bw per day, p<0.01
  increase in bodyweight: 15%

## CCCCCCCC/C=C\CCCCCCCC(=O)O [OA, oleic acid, reference compound]
[4]
  cell viability (MTS assay): neither Compound A nor OA showed a significant effect
[5]
  proliferation (BrdU incorporation): no effect

## CC/C=C\C/C=C\C/C=C\C/C=C\C/C=C\CCCC(=O)O [EPA, (5Z,8Z,11Z,14Z,17Z)-icosa-5,8,11,14,17-pentaenoic acid, reference compound]
CDAA/high-fat fed mice [6]
  hepatic cholesteryl ester: did not reduce
  hepatic diglycerides (DG): did not reduce
  hepatic free fatty acids (FFA): did not reduce
  hepatic triglyceride (TG): did not reduce

## CC/C=C\C/C=C\C/C=C\C/C=C\C/C=C\CCCCSC(CC)(CC)C(=O)O [Compound N, 2-ethyl-2-((5Z,8Z,11Z,14Z,17Z)-icosa-5,8,11,14,17-pentaenylthio)butanoic acid, reference compound]
APOE*3Leiden.CETP mice [7]; APOE*3Leiden.CETP mice
  fibrosis (hydroxyproline/proline ratio): had efficacy in reducing fibrosis
APOE*3Leiden.CETP mice [7]
  influx of inflammatory cells into the liver: prevented the influx of inflammatory cells into the liver
TNF-α mRNA; HD 0.3 mmol/kg bw per day
  TNF-a (relative mRNA expression): 1.2
TNF-α mRNA; LD 0.15 mmol/kg bw/day
  TNF-a (relative mRNA expression): 1***
APOE*3Leiden.CETP mice [8]
  Decrease in hypertrophy vs. control (%): 7%
  Hepatocellular hypertrophy: 42.9 ± 29.7
CDAA/high-fat fed mice [9]; HD 0.3 mmol/kg bw per day orally as admix to diet
  Hydroxyproline (μg) content per 100 mg liver: 54 μg HYP/per 100 mg liver
CDAA/high-fat fed mice [9]; LD 0.15 mmol/kg bw/day orally as admix to diet
  Hydroxyproline (μg) content per 100 mg liver: 48 μg HYP/per 100 mg liver
CDAA/high-fat fed mice [9]; high dose (HD) 0.3 mmol/kg bw per day orally as admix to diet
  Hydroxyproline (μg) content per liver: 950 µg
CDAA/high-fat fed mice [9]; low dose (LD) 0.15 mmol/kg bw/day orally as admix to diet
  Hydroxyproline (μg) content per liver: 1100 µg
Col1a1 mRNA; HD 0.3 mmol/kg bw per day
  Col1a1 (relative mRNA expression): 16
Col1a1 mRNA; LD 0.15 mmol/kg bw/day
  Col1a1 (relative mRNA expression): 15

## CC[C@H]1[C@@H](O)[C@@H]2[C@H](CC[C@]3(C)[C@@H]([C@H](C)CCC(=O)O)CC[C@@H]23)[C@@]2(C)CC[C@@H](O)C[C@@H]12 [OCA, reference compound]
[10]
  area percentage of α-SMA content compared to pre-treatment biopsy: no significant effect
[3]; [11]
  body weight: neither Compound A (45 mg/kg, 90 mg/kg, and 135 mg/kg) nor OCA significantly affected body weight
  food intake: not affected
col1A1
  total col1A1 content: no significant effect
ob/ob AMLN mice
  plasma ALT: no effect
  plasma AST: no effect
